# Experimental data from ChEMBL document CHEMBL5344418, “Recent developments in antimalarial activities of 4-aminoquinoline derivatives” (Eur J Med Chem, 2023).
# Columns and labels:
# [1] = system: Plasmodium falciparum; experiment: Antiplasmodial activity against Plasmodium falciparum 3D7; type: functional, organism-based
# [2] = system: Hemozoin; experiment: Inhibition of Beta-hematin formation in Plasmodium falciparum 3D7 by spectrophotometric analysis
# [3] = system: Hemozoin; experiment: Inhibition of Beta-hematin formation in Plasmodium falciparum K1 by spectrophotometric analysis
# [4] = system: Plasmodium falciparum; experiment: Antimalarial activity against chloroquine-sensitive Plasmodium falciparum 3D7 assessed as reduction in parasite growth incubated for 36 hrs by Giemsa staining based microscopic analysis; type: functional, organism-based; conditions: 3D7, 36 h
# [5] = Cytotoxicity against African monkey Vero cells assessed as reduction in cell viability incubated for 72 hrs by MTT assay; type: toxicity, cell-based; conditions: chlorocebus sabaeus
# [6] = system: Plasmodium falciparum; experiment: Antimalarial activity against chloroquine-sensitive Plasmodium falciparum 3D7 assessed as reduction in parasite growth incubated for 72 hrs by SYBR Green staining based fluorescence analysis; type: functional, organism-based; conditions: 3D7, 72 h
# [7] = system: Plasmodium falciparum; experiment: Antimalarial activity against chloroquine-resistant Plasmodium falciparum K1 assessed as reduction in parasite growth incubated for 72 hrs by SYBR Green staining based fluorescence analysis; type: functional, organism-based; conditions: K1, 72 h
# [8] = Cytotoxicity against African green monkey Vero cells assessed as reduction in cell viability incubated for 72 hrs by MTT assay; type: toxicity, cell-based; conditions: chlorocebus sabaeus
# [9] = Cytotoxicity against African green monkey Vero cells assessed as reduction in cell viability incubated for 24 hrs by fluorescence based analysis; type: toxicity; conditions: African green monkey (Chlorocebus sabaeus)
# [10] = system: Plasmodium falciparum; experiment: Antiplasmodial activity against chloroquine-resistant Plasmodium falciparum W2 assessed as parasitic growth inhibition incubated for 72 hrs by SYBR Green staining based fluorescence analysis; type: functional, organism-based; conditions: W2, 72 h
compound,measurement,setting,value
CCN(CC)CCC(NCC(C)Nc1ccnc2cc(Cl)ccc12)c1ccc(C)cc1 (stereo not given),IC50,[1],5270 nM
N#Cc1ccc(-c2cncn2CCNc2ccnc3cc(Cl)ccc23)cc1,IC50,[2],5000 nM
same,IC50,[3],730 nM
O=C(Cn1cc(COc2ccc(Br)cc2)nn1)NCCCNc1ccnc2cc(Cl)ccc12,IC50,[4],38800 nM
same,CC50 at 72 h,[5],75500 nM
O=C(Cn1cc(COc2ccc(Br)cc2)nn1)NCCNc1ccnc2cc(Cl)ccc12,IC50,[4],40 nM
same,CC50 at 72 h,[5],78200 nM
CC(C)CC(CN1CCCCC1)N(C)c1ccnc2cc(Cl)ccc12 (stereo not given),IC50,[6],150 nM
same,IC50,[7],420 nM
CN(CCCN1CCCC1)c1ccnc2cc(Cl)ccc12,IC50,[6],190 nM
same,IC50,[7],110 nM
same,CC50 at 72 h,[8],80200 nM
CC(C)CC(CN1CCOCC1)N(C)c1ccnc2cc(C(F)(F)F)ccc12 (stereo not given),IC50,[6],2720 nM
same,IC50,[7],2250 nM
same,CC50 at 72 h,[8],68600 nM
CC(C)CC(CN1CCCC1)N(C)c1ccnc2cc(Cl)ccc12 (stereo not given),IC50,[6],80 nM
same,IC50,[7],180 nM
same,CC50 at 72 h,[8],47000 nM
CN(c1ccnc2cc(Cl)ccc12)C(Cc1ccccc1)CN1CCCC1 (stereo not given),IC50,[6],60 nM
same,IC50,[7],100 nM
same,CC50 at 72 h,[8],57800 nM
CN(C)c1ccc(-c2cncn2CCNc2ccnc3cc(Cl)ccc23)cc1,IC50,[2],5000 nM
same,IC50,[3],1090 nM
Clc1ccc2c(NCCn3cncc3-c3cccc(Oc4ccccc4)c3)ccnc2c1,IC50,[2],5000 nM
same,IC50,[3],2620 nM
CCN(CC)CC(CC(C)C)N(C)c1ccnc2cc(C(F)(F)F)ccc12 (stereo not given),IC50,[6],3800 nM
same,IC50,[7],2500 nM
same,CC50 at 72 h,[8],52000 nM
O=C1c2ccc(N3CCN(CCO)CC3)cc2C(=O)N1CCCCCCNc1ccnc2cc(Cl)ccc12,IC50 at 24 h,[9],23300 nM
O=C1c2cccc(N3CCOCC3)c2C(=O)N1CCCCCCNc1ccnc2cc(Cl)ccc12,IC50 at 24 h,[9],50800 nM
CC(C)(C)c1cncn1CCNc1ccnc2cc(Cl)ccc12,IC50,[2],140 nM
same,IC50,[3],500 nM
Fc1ccc(-c2cncn2CCNc2ccnc3cc(Cl)ccc23)cc1,IC50,[2],5000 nM
same,IC50,[3],3040 nM
CN(CCCN1CCCCC1)c1ccnc2cc(Cl)ccc12,IC50,[6],40 nM
same,IC50,[7],60 nM
same,CC50 at 72 h,[8],107000 nM
O=C(Cn1cc(COc2ccc(Cl)cc2)nn1)NCCCCNc1ccnc2cc(Cl)ccc12,IC50,[4],92800 nM
same,CC50 at 72 h,[5],10900 nM
O=C1c2ccc(N3CCOCC3)cc2C(=O)N1CCCCCCNc1ccnc2cc(Cl)ccc12,IC50 at 24 h,[9],25400 nM
COc1ccc(C(CCN(Cc2ccccc2)Cc2ccccc2)NCC(C)Nc2ccnc3cc(Cl)ccc23)cc1 (stereo not given),IC50,[1],2400 nM
CC(C)c1ccc(-c2cncn2CCNc2ccnc3cc(Cl)ccc23)cc1,IC50,[2],2830 nM
same,IC50,[3],290 nM
CC(CNC(CCN(Cc1ccccc1)Cc1ccccc1)c1ccccc1)Nc1ccnc2cc(Cl)ccc12 (stereo not given),IC50,[1],2700 nM
CCN(CC)CC(Cc1ccccc1)N(C)c1ccnc2cc(Cl)ccc12 (stereo not given),IC50,[6],210 nM
same,IC50,[7],330 nM
same,CC50 at 72 h,[8],79000 nM
O=C1c2cccc(N3CCCCC3)c2C(=O)N1CCCCCCNc1ccnc2cc(Cl)ccc12,IC50 at 24 h,[9],204000 nM
O=C1c2ccc(N3CCN(CCO)CC3)cc2C(=O)N1CCCNc1ccnc2cc(Cl)ccc12,IC50 at 24 h,[9],25300 nM
CC(C)CC(CN1CCCCC1)N(C)c1ccnc2cc(C(F)(F)F)ccc12 (stereo not given),IC50,[6],2000 nM
same,IC50,[7],2040 nM
same,CC50 at 72 h,[8],42600 nM
Cc1ccc(C(CCN2CCOCC2)NCC(C)Nc2ccnc3cc(Cl)ccc23)cc1 (stereo not given),IC50,[1],2940 nM
CN(c1ccnc2cc(C(F)(F)F)ccc12)C(Cc1ccccc1)CN1CCCCC1 (stereo not given),IC50,[6],1370 nM
O=C(Cn1cc(COc2ccc(Cl)cc2)nn1)NCCNc1ccnc2cc(Cl)ccc12,IC50,[4],40 nM
same,CC50 at 72 h,[5],28900 nM
Clc1ccc2c(NCCn3cncc3C3CCCC3)ccnc2c1,IC50,[2],79 nM
same,IC50,[3],340 nM
O=C1c2cccc(N3CCCCC3)c2C(=O)N1CCCCNc1ccnc2cc(Cl)ccc12,IC50 at 24 h,[9],54100 nM
CN(c1ccnc2cc(C(F)(F)F)ccc12)C(Cc1ccccc1)CN1CCCC1 (stereo not given),IC50,[6],680 nM
same,IC50,[7],1770 nM
same,CC50 at 72 h,[8],39200 nM
Clc1ccc2c(NCCn3cncc3-c3ccco3)ccnc2c1,IC50,[2],290 nM
same,IC50,[3],970 nM
O=C1c2ccc(N3CCN(CCO)CC3)cc2C(=O)N1CCNc1ccnc2cc(Cl)ccc12,IC50 at 24 h,[9],26000 nM
CN(c1ccnc2cc(Cl)ccc12)C(Cc1ccccc1)CN1CCOCC1 (stereo not given),IC50,[6],1200 nM
same,IC50,[7],1380 nM
same,CC50 at 72 h,[8],33500 nM
O=Cc1ccc(OCc2cn(CC(=O)NCCCNc3ccnc4cc(Cl)ccc34)nn2)cc1,IC50,[4],910 nM
same,CC50 at 72 h,[5],12200 nM
CC(C)CC(CN1CCCC1)N(C)c1ccnc2cc(C(F)(F)F)ccc12 (stereo not given),IC50,[6],1240 nM
same,IC50,[7],1600 nM
same,CC50 at 72 h,[8],52000 nM
C[C@H]1[C@@H](O)O[C@@H]2O[C@@]3(C)CC[C@H]4[C@H](C)CC[C@@H]1[C@@]24OO3 [ARTENIMOL],IC50,[4],2 nM
same,IC50,[10],1 nM
